Legend:
[1] = tested on: myotube formed cells; assay: Lipid accumulation in myotube formed cells treated with hormone; format: cell-based; conditions: DMEM (phenol-red (−))/10% FBS, hormone for about 2 weeks; FIG. 5
From the text: Then, lipid accumulation levels of the cells were confirmed.

[2] = tested on: bovine MSCs; assay: MSC proliferation, cells enumerated with hematocytometer; format: cell-based; conditions: MSC in C-MS or CDFBS, 10 nM hormone, vs respective control
Protocol: The cultured cells were harvested by trypsin-EDTA, and subcultured in wells of 6-well plates with DMEM supplemented with FBS after washing the collected cell precipitate. Cells were cultured for a day in the supplemented medium to allow for equal attachment in the culture dish. The next day the medium was removed and replaced with DMEM supplemented with 10% FBS, MS, FS and C-MS.
MSCs were cultured in DMEM supplemented with C-MS to observe the steroidal effect on the cultured muscle cells. E2, testosterone, or a combination of E2 and testosterone (all 10 nM) were added directly to each medium. Cells were enumerated under microscopic examination using a hematocytometer.
For MSC differentiation, cells were collected from a primary culture dish and subcultured. The cells in passage one were cultured in medium supplemented with FBS, MS, FS, or […] for three days, and cell numbers in each culture were enumerated.
MSC were subcultured in C-MS or CDFBS and treated with 10 nM of E2 or testosterone, or a combination of E2 and testosterone.

[3] = tested on: FAT/CD36; assay: Real-time RT-PCR, FAT/CD36 mRNA in adipogenic medium; format: cell-based, bovine; conditions: adipogenic medium with C-MS, hormone-treated; FIG. 19
Protocol: (§1) Trizor™ reagent (Invitrogen) was used to extract total RNA from cells, according to the manufacturer's protocol. RNA was […] in diethylpyrocarbonate-treated water at −80° C. Concentrations of the extracted RNA samples were measured using an ND-100 spectrophotometer (NanoDrop Technologies, Wilmington, Del., USA) and the purity was checked with an Agilent 2100 bioanalyzer (Agilent Technologies, Palo Alto, Calif., USA) prior to RT-PCR. RNA was reverse-transcribed into the first stranded cDNA using Superscript-II reverse transcriptase (Invitrogen). Total RNA (1 μg in 20 μl total volume) was primed with oligo (dT) 20 primers (Bioneer, Daejeon, Korea), and reverse transcription was carried out at 42° C. for 50 min and 72° C. for 15 min. Subsequently, 2 μl of the 10× diluted cDNA product and 10 pmoles of each gene-specific primer were used to perform PCR using a 7500 real-time PCR system (Applied Biosystems, Foster City, Calif., USA). Power SYBR® Green PCR Master Mix (Applied Biosystems) was used as the fluorescence source. Primers were designed with Primer 3 software (http://frodo.wi.mit.edu) using sequence information listed at the National Center for Biotechnology Information. […]

[4] = tested on: FAT/CD36; assay: Immunocytochemistry, FAT/CD36 protein in adipogenic medium; format: cell-based, bovine; conditions: adipogenic medium with C-MS, hormone-treated; FIG. 20
Protocol: Isolated MSCs were cultured in a covered glass-bottom dish and allowed to differentiate into myotubes or to transdifferentiate into ALCs under different serum conditions. Then, the culture mediun was removed and cells were rinsed with PBS. PBS rinsing was also performed between all subsequent steps. Cells were fixed with 4% formaldehyde, permeabilized by 0.2% Triton X-100 and 3-4 drops of Image-iT™ FX signal enhancer (Invitrogen) was applied. Primary antibody (mouse monoclonal IgG1 Myogenin; sc-12732, rabbit polyclonal IgG CD36 sc-9154; Santa Cruz Biotechnology, Santa Cruz Calif., USA) was added and incubated at 4° C. in a humid environment overnight, and then incubated with secondary antibody (Alexa Fluor 488 goat anti-mouse SFX kit and Alexa Fluor 488 goat anti-rabbit SFX kit; Molecular Probes, Eugene, Oreg., USA) at room temperature for 1 hour. Each cell nucleus was counterstained by […] (DAPI; Sigma-Aldrich, St. Louis Mo., USA). Immunostained cells were observed using a fluorescence microscope (Nikon).
MSCs were transdifferentiated into ALCs by switching the culture medium into adipogenic medium. To observe the effect of different sera on transdifferentiation, cells were cultured in adipogenic media supplemented with different sera for 7 days and stained with ORO. […]

[5] = tested on: isolated MSCs; assay: Lipid droplets (ORO) in MSCs in adipogenic medium with C-MS plus hormone; format: cell-based, bovine; conditions: hormone-treated vs untreated, FIGS. 17 and 18
Protocol: The cells were cultured in adiopogenic medium treated with E2, testosterone, or E2 and testosterone. The cells were stained with ORO to check the accumulation of lipid droplets.

[6] = tested on: C2C12 myoblast cell line; assay: C2C12 myoblast proliferation; format: cell-based; conditions: testosterone-treated C-MS and CDFBS
From the text: In addition, the effect of different serum and steroids on the C2Cl2 myoblast cell line was also observed. The data generated were in agreement with those of bovine MSCs.

[7] = tested on: Myogenin; assay: Real-time RT-PCR, myogenin mRNA; format: cell-based, bovine; conditions: hormone treatment, 10 nM, C-MS medium; FIG. 13
Protocol: as §1

[8] = tested on: AR; assay: Real-time RT-PCR, AR mRNA; format: cell-based, bovine; conditions: hormone treatment, 10 nM, C-MS medium; FIG. 13
Protocol: as §1

| SMILES | lipid accumulation level in myotube [1] | increment of cell proliferation [2] | FAT/CD36 mRNA expression [3] | FAT/CD36 protein expression [4] | lipid droplets, ORO staining [5] | C2C12 cell proliferation [6] | myogenin expression [7] | AR expression [8] |
| --- | --- | --- | --- | --- | --- | --- | --- | --- |
| C[C@]12CC[C@@H]3c4ccc(O)cc4CC[C@H]3[C@@H]1CC[C@@H]2O [E2, 17β-estradiol] | highest in myotube of the cells treated with 17β-estradiol, and decreases in the following order of [17β-estradiol+testosterone], testosterone, and the control group that was not treated with hormone | highest in the testosterone-treated culture followed by the combination E2 and testosterone, and E2 only | significant increase | upregulated | slight increase |  |  |  |
| C[C@]12CC[C@H]3[C@@H](CCC4=CC(=O)CC[C@@]43C)[C@@H]1CC[C@@H]2O [testosterone] | highest in myotube of the cells treated with 17β-estradiol, and decreases in the following order of [17β-estradiol+testosterone], testosterone, and the control group that was not treated with hormone | highest in the testosterone-treated culture followed by the combination E2 and testosterone, and E2 only |  |  | slight increase | markedly increased | up-regulated myogenin and AR expression significantly | up-regulated myogenin and AR expression significantly |
